Values of other authors in patent US20060239954A1, “Antimicrobial spray for use on pets” (priority 2005, published 2006).

Columns and labels:
Details in all cases: 0.1% aqueous solution
Staphylococcus aureus = tested on: Staphylococcus aureus
Escherichia coli = tested on: Escherichia coli
Pseudomonas aeruginosa = tested on: Pseudomonas aeruginosa

N=C(NCCCCCCNC(=N)NC(=N)Nc1ccc(Cl)cc1)NC(=N)Nc1ccc(Cl)cc1.O=C(O)[C@H](O)[C@@H](O)[C@H](O)[C@H](O)CO.O=C(O)[C@H](O)[C@@H](O)[C@H](O)[C@H](O)CO [Chlorhexidine gluconate, chlorhexidine gluconate]
bactericidal: bactericidal against Staphylococcus aureus (Staphylococcus aureus) | bactericidal against Escherichia coli (Escherichia coli) | bactericidal against Pseudomonas aeruginosa (Pseudomonas aeruginosa)
